Test in all cases: area under dose-response curve of surviving fraction (unscaled, Aref=0) (surviving fraction x log10(nM)); higher = more resistant
Holding throughout (conditions): exposure time: 5 days; dose range 0.5-1000 nM

Compound in test [1]: Cc1c(N)nc([C@H](CC(N)=O)NC[C@H](N)C(N)=O)nc1C(=O)N[C@H](C(=O)N[C@H](C)[C@@H](O)[C@H](C)C(=O)N[C@H](C(=O)NCCc1nc(-c2nc(C(=O)NCCC[S+](C)C)cs2)cs1)[C@@H](C)O)[C@@H](OC1OC(CO)C(O)C(O)C1OC1OC(CO)C(O)C(OC(N)=O)C1O)c1cnc[nH]1 [BLEOMYCIN]
The method in brief: (§1)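 Each tumour cell line was screened three times in 384-well plates, receiving eight inhibitor concentrations from 0.5 to 1000 nM for five days. CellTiter-Glo luminescence gave viability, normalised to DMSO-only wells. Using the drc R package, surviving fractions were fitted with 3-parameter logistic dose-response curves, and the unscaled activity area over log10 dose (Aref = 0) was taken as the area under the curve.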

Compound in test [2]: CCc1cc(Nc2nccc(-c3c(-c4ccc(OC)c(C(=O)Nc5c(F)cccc5F)c4)nc4ccccn34)n2)c(OC)cc1N1CCC(N2CCN(S(C)(=O)=O)CC2)CC1
The procedure, abridged:
as §1

Compound in test [3]: CC/C(=C(\c1ccc(O)cc1)c1ccc(OCCN(C)C)cc1)c1ccccc1 [AFIMOXIFENE]
The method in brief:
as §1

Compound in test [4]: COc1cc2nccc(Oc3ccc(NC(=O)NC4CC4)c(Cl)c3)c2cc1C(N)=O [LENVATINIB]
The procedure, abridged:
as §1

Compound in test [5]: Cc1ccc(NC(=O)c2ccc(CN3CCN(C)CC3)cc2)cc1Nc1nccc(-c2cccnc2)n1 [IMATINIB]
The method in brief: as §1

Compound in test [6]: COc1cc2nccc(Oc3ccc(NC(=O)C4(C(=O)Nc5ccc(F)cc5)CC4)cc3)c2cc1OC [CABOZANTINIB]
The method in brief: as §1

Compound in test [7]: COc1ccc(-c2cc3c(C)nc(N)nc3n([C@H]3CC[C@H](OCCO)CC3)c2=O)cn1
The procedure, abridged: as §1

Compound in test [8]: Cn1c(=O)n(-c2ccc(C(C)(C)C#N)cc2)c2c3cc(-c4cnc5ccccc5c4)ccc3ncc21 [BEZ-235]
The method in brief: as §1

Compound in test [9]: C[C@H](CN(C)C)Oc1nc(Nc2cc3cccc(Cl)c3cn2)cnc1C#N
The procedure, abridged:
as §1

Compound in test [10]: O=C(CCCCCCC(=O)Nc1ccccc1)NO [VORINOSTAT]
The method in brief: as §1

Compound in test [11]: Cn1ncnc1[C@H]1c2n[nH]c(=O)c3cc(F)cc(c23)N[C@@H]1c1ccc(F)cc1 [BMN-673]
The procedure, abridged: as §1

Compound in test [12]: C[C@@H]1CN(CC(=O)Nc2ccc3c(c2)Cc2cccc(-c4cc(=O)cc(N5CCOCC5)o4)c2S3)C[C@H](C)O1
The method in brief: as §1

Compound in test [13]: C=CCn1c(=O)c2cnc(Nc3ccc(N4CCN(C)CC4)cc3)nc2n1-c1cccc(C(C)(C)O)n1 [MK-1775]
The procedure, abridged:
as §1

Compound in test [14]: Cc1cn(-c2cc(NC(=O)c3ccc(C)c(Nc4nccc(-c5cccnc5)n4)c3)cc(C(F)(F)F)c2)cn1 [NILOTINIB]
The procedure, abridged: as §1

MDAMB361 BREAST: the “area under dose-response curve” value was found to be 2.67 in test [1]; 3.05 in [2]; 2.82 in [3]; 2.97 in [4]; 2.84 in test [5]; 2.85 in test [6]. The “area under dose-response curve” value in [7] is 2.3; in test [8], 2.44; in [9] it was 2.21; in [10], 2.51; in [11] it was 2.66; in test [12], 2.33. In addition, the entries for the “area under dose-response curve” value in test [13] and in [14] were 2.29 and 2.19, respectively.

(Values after the supplement of paper PMC6045584.)
